Reference: ChEMBL document CHEMBL3046432, “Synthesis of new series of pyrimido[4,5-b][1,4] benzothiazines as 15-lipoxygenase inhibitors and study of their inhibitory mechanism” (Med Chem Res, 2013)

What was measured:
[1] = test system: Radical scavenging activity; assay: Antioxidant activity assessed as inhibition of DPPH radical […]; format: functional
[2] = target: T1, Seed linoleate 13S-lipoxygenase-1 (Glycine max, UniProt P08170); assay: Inhibition of Glycine max (soybean) 15-lipoxygenase activity assessed as decrease in peroxide formation using linoleic acid as substrate preincubated with enzyme for 5 min prior to substrate addition measured after 7 min by MBTH-DMAB method
T1 sequence (P08170 whole entry): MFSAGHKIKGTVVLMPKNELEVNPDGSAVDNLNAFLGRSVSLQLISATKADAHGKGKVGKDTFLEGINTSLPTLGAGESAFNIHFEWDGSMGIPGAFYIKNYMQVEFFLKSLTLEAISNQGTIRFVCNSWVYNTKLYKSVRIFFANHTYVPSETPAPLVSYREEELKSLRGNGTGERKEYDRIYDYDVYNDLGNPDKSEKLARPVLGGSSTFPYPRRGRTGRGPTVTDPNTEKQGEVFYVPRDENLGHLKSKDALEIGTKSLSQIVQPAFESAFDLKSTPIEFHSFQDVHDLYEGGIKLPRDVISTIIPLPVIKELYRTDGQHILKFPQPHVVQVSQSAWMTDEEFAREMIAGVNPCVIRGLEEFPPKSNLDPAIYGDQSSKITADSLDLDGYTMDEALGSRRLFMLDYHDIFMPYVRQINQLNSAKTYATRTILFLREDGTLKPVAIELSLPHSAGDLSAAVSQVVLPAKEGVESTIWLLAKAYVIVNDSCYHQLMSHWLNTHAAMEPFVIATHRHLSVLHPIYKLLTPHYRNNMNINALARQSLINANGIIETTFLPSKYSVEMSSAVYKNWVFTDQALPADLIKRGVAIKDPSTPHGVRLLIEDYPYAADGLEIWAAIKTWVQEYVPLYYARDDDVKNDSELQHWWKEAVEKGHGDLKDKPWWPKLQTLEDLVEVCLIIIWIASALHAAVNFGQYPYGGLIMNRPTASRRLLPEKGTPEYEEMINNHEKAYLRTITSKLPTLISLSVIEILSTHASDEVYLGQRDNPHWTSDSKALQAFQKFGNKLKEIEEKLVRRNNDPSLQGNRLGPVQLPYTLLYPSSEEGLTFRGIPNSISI

[3] = target: T1, Seed linoleate 13S-lipoxygenase-1; assay: Inhibition of Glycine max (soybean) 15-lipoxygenase activity using linoleic acid as substrate by MBTH-DMAB method

IC50 [1] [µM] | Ki [2] [µM] | IC50 [3] [µM] | SMILES
621 | 0.662 | 121 | CCCc1nc(N2CCCCC2)nc2c1Nc1ccccc1S2
669 | 2.01 | 726 | CCCc1nc(N2CCOCC2)nc2c1Nc1ccccc1S2
17.3 | 0.192 | 8.9 | CCCc1nc(N2CCN(C)CC2)nc2c1Nc1ccccc1S2
69.6 | 0.198 | 19.5 | Cc1nc(N2CCN(C)CC2)nc2c1Nc1ccccc1S2
599 | 0.486 | 86.3 | CCCc1nc(N2CCC(C)CC2)nc2c1Nc1ccccc1S2
311 | 1.84 | 611 | CCCc1nc(N2CCCC2)nc2c1Nc1ccccc1S2
357 | 1.16 | 404 | CCCc1nc(N2CCN(c3ccccc3)CC2)nc2c1Nc1ccccc1S2
